These results are taken from PubChem BioAssay AID1312 (NMMLSC, 2008).

The source made the active and inactive calls.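 How the source made its calls: active means area under the green fluorescent protein level over time curve over 15% above untreated cells; inactive means the rest.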 Peptide text beside a SMILES is read from it. * marks the point of attachment. Cbz = O=C(OCc1ccccc1)*

This assay relates to S. cerevisiae Sic1-GFP degradation, flow cytometry time course. Nature of the assay: degradation of ubiquitination-site mutant Sic1-GFP in yeast, confirmation, mechanism study for 26S proteasome disassembly project, flow cytometry, Sic1MUS mutant, S. cerevisiae (AID 1312). In general terms: Flow cytometry measures light scatter and fluorescence of single cells or particles in a stream.

In the case of `CC(=O)N1C(=O)C(=C2C=C(C)OC(C)=C2)c2ccccc21`, the outcome is “active; degradation inhibitor”.
For `CC(C)C[C@@H](C=O)NC(=O)[C@H](CC(C)C)NC(=O)[C@H](CC(C)C)NC(=O)OCc1ccccc1` (Cbz-Leu-Leu-Leu-aldehyde) the value was “inactive”.
